# According to patent US7029652B2, “Method of treating tumors” (The Regents of the University of California, priority 1998, dated 2006):
# Columns and labels:
# [1] = tested on: HBT 3477 tumors; assay: Tumoricidal effect in HBT 3477 breast cancer xenografts; format: in vivo, mice
# Procedure: Mice. Female athymic Balb/c nu/nu mice (7–10 week old; Harlan Sprague Dawley, Inc., Frederick, Md.) were maintained according to University of California animal care guidelines. HBT 3477 cells (3.0×10^6), harvested in log phase, were injected subcutaneously into one side of the abdomen for therapy studies (except where noted) and into both sides for immunopathology studies. Injection of RIT was by tail vein and cyclo-(Arg-Gly-Asp-D-Phe-[N-Me]-Val) was delivered by intraperitoneal (i.p.) injection. “Day 0” was designated as the time of RIT injection or, for first cRGD pentapeptide injection, for cRGD pentapeptide only group. Mice were sacrificed by cervical dislocation for immunopathology studies at the times indicated, when tumor burden exceeded allowed limits, or at 84 days for therapy studies.
# Control (No RIT) Treatment groups.
# High Dose RIT Treatment groups.
# Low Dose RIT Treatment groups. […] These doses were given on day 0, 1 hour prior to RIT, followed by 5 more doses on days 2, 4, 6, 8, and 10 (30 mice, all with 1 tumor each).
# Tumoricidal effect. Tumors were measured with calipers in 3 orthogonal diameters 3 times per week. Tumor volume was calculated using the formula for hemiellipsoids (DeNardo et al. Clin. Cancer Res., 3:71–79 (1997)). Initial tumor volume was defined as the volume on the day before treatment. Tumors that completely regressed were considered to have a volume of zero. […] For mice bearing two tumors with differing responses, tumor response was described according to both tumor responses. Mice dying prior to 30 days from toxicity were excluded from tumor response results.
# (§1) Statistical Analysis. Statistical analysis of mortality data for RIT and CMRIT method treated mice was performed using a Fisher Exact test with StatExact software to determine if mortality was different. Statistical analysis of therapy data was done using a Cochran Mantel Haenszel test to evaluate effect of RIT dose on outcome for RIT and CMRIT method groups. Comparison of cure rates to all other responses for RIT vs. CMRIT method groups was done by Fisher Exact test, with the best tumor response used for 2-tumored animals for statistical purposes. Statistical differences between immunopathology groups at the different time points were assessed by analysis of variance (ANOVA) (Fisher PLSD) using STATview software as appropriate, with p<0.05 considered significant.
# [2] = Toxicity: mortality, weights and blood counts; format: in vivo
# Procedure: Toxicity. Weights and blood counts were measured 2–3 times per week for 12 weeks post-injection or until death. Blood samples were collected from tail veins using 2 μL microcapillary pipets. Samples from mice within a dose group were pooled, and diluted 1:200 in phosphate-buffered saline (PBS, 0.9% saline/10 mM sodium phosphate, pH 7.6) for red blood cell (RBC) counts; 1:100 in 1% (w/v) ammonium oxalate for platelet counts; or 1:20 in 3% (w/v) acetic acid for white blood cell (WBC) counts.
# as §1
# [3] = tested on: HBT 3477 tumors; assay: Proliferation (Ki67) in tumors; format: in vivo, mice
# Procedure: (§2) Cellular immunopathology groups. Unless otherwise noted, groups consisted of 2 mice, each bearing 2 tumors, for a total of 4 tumors analyzed at each time point. […] The tumors were removed, cut in half, frozen in optimal cutting temperature (O.C.T). medium, and stored at about −70° C. until sectioning (10-μm sections). All time points were evaluated for apoptosis by terminal deoxynucleotidyl transferase-mediated dUTP nick end labeling (TUNEL, Cavrieli, et al. J. Cell Bio., 119: 493–501 (1992)) analysis, and selected time points (untreated, 1,5 and 6 days) were assessed for differences in proliferation rate (Ki67) and microvessel density (CD31).
# (§3) Proliferation and microvessel density Analyses. 10-μm sections of tumors from untreated and mice treated with cRGD pentapeptide, RIT and CMRIT method and sacrificed at 1, 5 and 6 days after treatment were fixed for 10 minutes in ice-cold acetone, rinsed in PBS, and briefly incubated in methanol with 0.6% H2O2 (5 minutes). After rinsing in PBS, sections were blocked for 10 minutes with 10% goat serum and 1% bovine serum albumin in PBS. Mouse anti-Ki67 MAb (Pharmingen, clone B56) was applied in blocking solution (6.25 μg/ml) and the slides were incubated at room temperature for 2 hours, followed by rinsing in PBS. Goat anti-mouse rhodamine-labeled or goat anti-mouse Cy-3-labeled antibody was applied (Jackson ImmunoResearch Laboratories, Inc, West Grove, Pa., 1:100) and the slides were incubated for 1 hour at room temperature. After rinsing in PBS the sections were incubated for 1 hour at room temperature with rat anti-mouse CD31 antibody (Pharmingen, 1:100), followed by rinsing in PBS and a subsequent 1 hour incubation with goat anti-rat FITC-labeled antibody (Pharmingen, 1:50). After rinsing in PBS, the slides were counterstained with DAPI (0.4 μg/ml) and mounted in Biomeda gel mount (Fisher) under coverslips. Quantitation of Ki67 was performed using an Olympus microscope at X1000 magnification for assessment of proliferation. The mean total number of Ki67-positive cells/field in a tumor was determined by counts from 6 fields per tumor chosen randomly by DAPI stain. Microvessel density was determined by counting the number of CD31-stained vessels per random field at X400 magnification. Any endothelial cell or cell cluster positive for CD31, which was separate from an adjacent cluster, was counted as one microvessel. Six randomly chosen fields per tumor section were used to establish an average for each tumor. Average microvessel density for a treatment group was determined by averaging the values from 4 tumors/group.
# [4] = tested on: HBT 3477 tumors; assay: Microvessel density (CD31) in tumors; format: in vivo, mice
# Procedure: as §2, §3
# [5] = combined RIT 200–260 μCi, best response (parentheses)
# [6] = combined RIT 200–260 μCi, worst response
# [7] = high dose RIT 260 μCi, best response (parentheses)
# [8] = high dose RIT 260 μCi, worst response
# [9] = low dose RIT, best response (parentheses)
# [10] = comparison as stated in the sentence
# [11] = Day 1, six fields per tumor at 1000X
# [12] = Day 1, six fields per tumor at 400X
compound,measurement,setting,value
"^90Y-1,4,7,10-tetraazacyclododecane-N,N′,N″,N′″-tetraacetic acid-peptide-ChL6 [RIT]",CR complete regression (number of mice),[1]; [5],10
same,Cure (number of mice),[1]; [5],9
same,NR no regression (number of mice),[1]; [5],0
same,PR partial regression (number of mice),[1]; [5],27
same,CR complete regression (number of mice),[1]; [6],6
same,NR no regression (number of mice),[1]; [6],3
same,PR partial regression (number of mice),[1]; [6],29
same,cure rate,[1]; combined low and high dose RIT,20%
same,Cure (number of mice),"[1]; combined low and high dose RIT 200–260 μCi, worst response",8
same,Cure (number of mice),"[1]; high dose RIT 260 μCi (CMRIT + cRGD 250 μg × 6), worst response",4
same,CR complete regression (number of mice),[1]; [7],6
same,PR partial regression (number of mice),[1]; [7],16
same,CR complete regression (number of mice),[1]; [8],2
same,NR no regression (number of mice),[1]; [8],0
same,PR partial regression (number of mice),[1]; [8],20
same,cures,[1]; high dose RIT (260 μCi),15%
same,Cure (number of mice),"[1]; low dose RIT 200–230 μCi (CMRIT 200 μCi + cRGD 250 μg × 6), worst response",4
same,Cure (number of mice),"[1]; low dose RIT 200–230 μCi, best response (parentheses)",5
same,cures,[1]; low dose RIT (200–230 μCi),25%
same,NR no regression (number of mice),[1]; [9],0
same,PR partial regression (number of mice),[1]; [9],11
same,CR complete regression (number of mice),"[1]; low dose RIT, worst response",4
same,NR no regression (number of mice),"[1]; low dose RIT, worst response",3
same,PR partial regression (number of mice),"[1]; low dose RIT, worst response",9
same,"weight, RBC, WBC and platelet counts, in words",[2]; [10],"decreased weight, RBC, WBC and platelet counts"
same,mortality,[2]; high dose RIT (260 μCi),33%
same,mortality,[2]; low dose RIT (200–230 μCi),29%
same,"Proliferating cells, average no. of Ki67-positive cells",[3]; [11],18 ± 1
same,"Proliferating cells, average no. of Ki67-positive cells",[3]; Day 5,13 ± 1 f
same,"Proliferating cells, average no. of Ki67-positive cells",[3]; Day 6,7 ± 1
same,"Microvessel density, average number ± SE of CD31 positive regions",[4]; [12],15 ± 1
same,"Microvessel density, average number ± SE of CD31 positive regions",[4]; Day 5,13 ± 1
same,"Microvessel density, average number ± SE of CD31 positive regions",[4]; Day 6,9 ± 1 e
CC(C)[C@H]1C(=O)N[C@@H](CCCN=C(N)N)C(=O)NCC(=O)N[C@@H](CC(=O)O)C(=O)N[C@H](Cc2ccccc2)C(=O)N1C [cyclo-(Arg-Gly-Asp-D-Phe-[N-Me]-Val)],effect on tumor growth,"[1]; 6×250 μg doses given every other day, in words",No apparent effect
same,cures,"[1]; no RIT, 6 × 250 μg i.p.",0%
same,CR complete regression (number of mice),"[1]; no RIT, worst response",0
same,NR no regression (number of mice),"[1]; no RIT, worst response",18
same,PR partial regression (number of mice),"[1]; no RIT, worst response",0
same,Cure (number of mice),"[1]; no RIT, worst response of 2-tumored mice, 84 days",no cures
same,Cure (number of mice),"[1]; no RIT, worst response of 2-tumored mice, 84 days, listed as cRGD pentapeptide",0
same,"mortality or toxicity, in words",[2]; [10],No increased mortality or toxicity
same,"Proliferating cells, average no. of Ki67-positive cells",[3]; [11],14 ± 2 f
same,"Proliferating cells, average no. of Ki67-positive cells",[3]; Day 5,13 ± 1 f
same,"Microvessel density, average number ± SE of CD31 positive regions",[4]; [12],12 ± 2
same,"Microvessel density, average number ± SE of CD31 positive regions",[4]; Day 5,20 ± 4
